Legend:
Experiment in all cases: radiometric filter-binding kinase assay, Kinase HotSpot
Details in all cases: compound 0.5 µM; ATP 10 µM
AURKA (human) = AURKA (human) (UniProt O14965)
AURKC (human) = AURKC (human) (UniProt Q9UQB9)
CAMK1D (human) = CAMK1D (human) (UniProt Q8IU85)
CDK5 CDK5R1 p35 (human) = CDK5 CDK5R1 p35 (human) (UniProt Q00535+Q15078)
CDK9 CCNK (human) = CDK9 CCNK (human) (UniProt O75909+P50750)
CDK9 CCNT1 (human) = CDK9 CCNT1 (human) (UniProt P50750+O60563)
CLK1 (human) = CLK1 (human) (UniProt P49759)
CSNK1E (human) = CSNK1E (human) (UniProt P49674)
FGFR4 (human) = FGFR4 (human) (UniProt P22455)
FGR (human) = FGR (human) (UniProt P09769)
FLT1 (human) = FLT1 (human) (UniProt P17948)
GRK7 (human) = GRK7 (human) (UniProt Q8WTQ7)
HIPK1 (human) = HIPK1 (human) (UniProt Q86Z02)
HIPK3 (human) = HIPK3 (human) (UniProt Q9H422)
HIPK4 (human) = HIPK4 (human) (UniProt Q8NE63)
IRAK4 (human) = IRAK4 (human) (UniProt Q9NWZ3)
Sequence of IRAK4 (human) (Q9NWZ3 whole entry, looked up): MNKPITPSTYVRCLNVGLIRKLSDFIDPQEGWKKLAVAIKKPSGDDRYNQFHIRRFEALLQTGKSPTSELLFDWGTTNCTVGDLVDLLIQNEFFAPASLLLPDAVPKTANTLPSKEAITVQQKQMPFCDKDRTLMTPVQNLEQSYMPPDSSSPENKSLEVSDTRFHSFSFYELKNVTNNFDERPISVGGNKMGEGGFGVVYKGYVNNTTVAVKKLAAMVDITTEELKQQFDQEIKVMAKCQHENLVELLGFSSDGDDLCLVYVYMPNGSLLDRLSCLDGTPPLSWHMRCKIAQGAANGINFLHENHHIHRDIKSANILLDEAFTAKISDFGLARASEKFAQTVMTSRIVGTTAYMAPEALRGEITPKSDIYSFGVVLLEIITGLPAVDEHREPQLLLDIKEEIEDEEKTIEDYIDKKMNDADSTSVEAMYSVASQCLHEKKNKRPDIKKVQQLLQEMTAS

MAP3K11 (human) = MAP3K11 (human) (UniProt Q16584)
Sequence of MAP3K11 (human) (Q16584 whole entry, looked up): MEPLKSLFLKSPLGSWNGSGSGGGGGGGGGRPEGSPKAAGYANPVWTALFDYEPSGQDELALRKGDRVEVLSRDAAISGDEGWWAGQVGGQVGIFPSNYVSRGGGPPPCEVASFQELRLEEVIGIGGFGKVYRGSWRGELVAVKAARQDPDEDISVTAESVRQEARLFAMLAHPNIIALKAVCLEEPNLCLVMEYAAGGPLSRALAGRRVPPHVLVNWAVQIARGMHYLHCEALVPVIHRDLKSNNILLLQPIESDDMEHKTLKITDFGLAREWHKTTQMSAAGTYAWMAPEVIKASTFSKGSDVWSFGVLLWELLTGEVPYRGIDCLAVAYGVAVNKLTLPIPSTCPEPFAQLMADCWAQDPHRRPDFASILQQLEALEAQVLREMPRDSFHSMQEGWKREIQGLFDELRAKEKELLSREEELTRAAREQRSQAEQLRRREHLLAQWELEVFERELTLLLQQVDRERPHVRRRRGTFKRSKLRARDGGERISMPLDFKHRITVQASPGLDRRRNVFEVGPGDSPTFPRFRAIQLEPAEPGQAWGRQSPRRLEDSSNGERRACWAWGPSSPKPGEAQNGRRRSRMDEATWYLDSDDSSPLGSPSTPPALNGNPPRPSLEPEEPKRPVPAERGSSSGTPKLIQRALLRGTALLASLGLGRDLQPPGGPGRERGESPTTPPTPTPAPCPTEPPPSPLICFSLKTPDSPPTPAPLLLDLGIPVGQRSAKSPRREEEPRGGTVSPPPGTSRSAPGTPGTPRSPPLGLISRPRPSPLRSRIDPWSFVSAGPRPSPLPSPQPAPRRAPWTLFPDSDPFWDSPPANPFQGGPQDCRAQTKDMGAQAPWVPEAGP

MAP3K2 (human) = MAP3K2 (human) (UniProt Q9Y2U5)
MAP3K3 (human) = MAP3K3 (human) (UniProt Q99759)
MAP3K8 (human) = MAP3K8 (human) (UniProt P41279)
MAP4K5 (human) = MAP4K5 (human) (UniProt Q9Y4K4)
MAPKAPK2 (human) = MAPKAPK2 (human) (UniProt P49137)
NEK1 (human) = NEK1 (human) (UniProt Q96PY6)
NTRK1 (human) = NTRK1 (human) (UniProt P04629)
NTRK3 (human) = NTRK3 (human) (UniProt Q16288)
PAK2 (human) = PAK2 (human) (UniProt Q13177)
PLK3 (human) = PLK3 (human) (UniProt Q9H4B4)
PNCK (human) = PNCK (human) (UniProt Q6P2M8)
PRKCH (human) = PRKCH (human) (UniProt P24723)
RAF1 (human) = RAF1 (human) (UniProt P04049)
RPS6KB1 (human) = RPS6KB1 (human) (UniProt P23443)
SGK2 (human) = SGK2 (human) (UniProt Q9HBY8)
SGK3 (human) = SGK3 (human) (UniProt Q96BR1)
SLK (human) = SLK (human) (UniProt Q9H2G2)
Sequence of SLK (human) (Q9H2G2 whole entry, looked up): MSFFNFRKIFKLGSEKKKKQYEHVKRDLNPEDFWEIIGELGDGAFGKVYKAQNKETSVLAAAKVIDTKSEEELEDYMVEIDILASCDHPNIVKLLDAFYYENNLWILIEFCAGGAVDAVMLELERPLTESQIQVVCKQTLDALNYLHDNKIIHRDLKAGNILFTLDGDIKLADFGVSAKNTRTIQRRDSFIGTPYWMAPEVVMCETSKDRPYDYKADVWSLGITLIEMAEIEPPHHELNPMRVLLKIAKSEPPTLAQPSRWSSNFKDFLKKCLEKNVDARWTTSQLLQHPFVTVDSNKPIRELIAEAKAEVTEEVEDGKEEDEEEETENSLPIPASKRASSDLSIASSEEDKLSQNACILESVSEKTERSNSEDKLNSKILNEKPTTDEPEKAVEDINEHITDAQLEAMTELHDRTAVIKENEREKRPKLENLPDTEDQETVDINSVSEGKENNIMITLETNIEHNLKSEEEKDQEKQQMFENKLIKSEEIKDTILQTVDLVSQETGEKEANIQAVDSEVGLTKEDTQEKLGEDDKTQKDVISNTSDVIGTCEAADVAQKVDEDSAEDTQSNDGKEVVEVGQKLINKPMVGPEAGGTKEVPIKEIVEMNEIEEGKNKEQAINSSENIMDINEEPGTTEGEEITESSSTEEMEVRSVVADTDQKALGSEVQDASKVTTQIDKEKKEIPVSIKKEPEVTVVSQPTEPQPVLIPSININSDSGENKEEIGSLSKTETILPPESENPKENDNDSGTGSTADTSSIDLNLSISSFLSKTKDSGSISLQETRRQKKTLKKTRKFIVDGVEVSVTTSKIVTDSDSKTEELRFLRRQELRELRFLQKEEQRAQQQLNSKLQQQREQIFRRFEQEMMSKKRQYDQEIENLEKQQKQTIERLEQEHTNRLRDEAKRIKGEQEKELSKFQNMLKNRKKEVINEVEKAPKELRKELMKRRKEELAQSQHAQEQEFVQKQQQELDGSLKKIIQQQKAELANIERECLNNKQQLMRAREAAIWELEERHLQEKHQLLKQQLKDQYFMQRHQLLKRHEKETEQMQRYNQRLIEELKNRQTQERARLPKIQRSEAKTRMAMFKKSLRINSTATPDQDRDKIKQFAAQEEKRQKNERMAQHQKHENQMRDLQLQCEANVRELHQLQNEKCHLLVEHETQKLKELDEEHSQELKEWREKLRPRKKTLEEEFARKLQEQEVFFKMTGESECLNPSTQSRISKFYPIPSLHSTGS

STK10 (human) = STK10 (human) (UniProt O94804)
STK4 (human) = STK4 (human) (UniProt Q13043)
SYK (human) = SYK (human) (UniProt P43405)
TAOK3 (human) = TAOK3 (human) (UniProt Q9H2K8)
Sequence of TAOK3 (human) (Q9H2K8 whole entry, looked up): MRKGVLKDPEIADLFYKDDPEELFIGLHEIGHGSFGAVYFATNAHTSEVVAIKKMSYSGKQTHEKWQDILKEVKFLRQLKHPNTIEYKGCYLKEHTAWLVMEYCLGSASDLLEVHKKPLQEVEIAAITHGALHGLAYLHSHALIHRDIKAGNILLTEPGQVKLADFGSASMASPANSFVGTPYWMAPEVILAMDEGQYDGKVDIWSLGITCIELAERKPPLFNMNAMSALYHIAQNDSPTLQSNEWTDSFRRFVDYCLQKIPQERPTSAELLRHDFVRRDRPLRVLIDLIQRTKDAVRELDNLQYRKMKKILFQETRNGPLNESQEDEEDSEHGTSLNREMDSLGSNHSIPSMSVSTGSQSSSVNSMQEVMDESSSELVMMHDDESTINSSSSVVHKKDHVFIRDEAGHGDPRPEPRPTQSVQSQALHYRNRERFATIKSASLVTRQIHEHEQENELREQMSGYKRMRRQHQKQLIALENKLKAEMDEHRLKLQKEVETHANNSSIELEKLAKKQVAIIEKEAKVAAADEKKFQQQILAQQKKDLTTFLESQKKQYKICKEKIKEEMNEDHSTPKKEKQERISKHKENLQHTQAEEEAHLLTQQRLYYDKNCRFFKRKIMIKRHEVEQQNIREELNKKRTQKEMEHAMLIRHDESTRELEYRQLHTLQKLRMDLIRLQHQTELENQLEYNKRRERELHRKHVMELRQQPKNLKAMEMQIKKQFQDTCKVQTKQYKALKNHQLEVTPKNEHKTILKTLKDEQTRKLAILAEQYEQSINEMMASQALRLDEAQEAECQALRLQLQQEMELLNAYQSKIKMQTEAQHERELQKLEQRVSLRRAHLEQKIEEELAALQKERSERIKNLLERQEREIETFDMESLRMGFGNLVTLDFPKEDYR

TEK (human) = TEK (human) (UniProt Q02763)
TNK2 (human) = TNK2 (human) (UniProt Q07912)
VRK1 (human) = VRK1 (human) (UniProt Q99986)
WEE1 (human) = WEE1 (human) (UniProt P30291)
Sequence of WEE1 (human) (P30291 whole entry, looked up): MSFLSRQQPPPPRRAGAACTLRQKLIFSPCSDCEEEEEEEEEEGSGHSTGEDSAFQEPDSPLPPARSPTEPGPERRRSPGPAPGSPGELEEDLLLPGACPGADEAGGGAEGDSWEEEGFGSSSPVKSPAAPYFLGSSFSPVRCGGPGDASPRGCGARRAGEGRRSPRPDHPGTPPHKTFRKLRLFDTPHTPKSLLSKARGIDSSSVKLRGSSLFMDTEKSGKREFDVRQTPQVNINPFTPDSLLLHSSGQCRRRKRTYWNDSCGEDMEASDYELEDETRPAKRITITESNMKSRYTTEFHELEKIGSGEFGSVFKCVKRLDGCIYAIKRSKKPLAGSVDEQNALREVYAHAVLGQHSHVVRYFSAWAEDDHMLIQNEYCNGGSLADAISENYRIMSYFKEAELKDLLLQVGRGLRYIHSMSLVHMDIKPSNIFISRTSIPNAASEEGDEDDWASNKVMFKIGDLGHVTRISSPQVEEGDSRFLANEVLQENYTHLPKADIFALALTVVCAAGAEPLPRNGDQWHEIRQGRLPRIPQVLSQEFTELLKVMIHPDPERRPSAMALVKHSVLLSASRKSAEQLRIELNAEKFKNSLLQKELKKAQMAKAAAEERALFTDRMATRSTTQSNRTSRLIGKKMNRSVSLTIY

Sequence of CAMK1D (human) (Q8IU85 whole entry, looked up): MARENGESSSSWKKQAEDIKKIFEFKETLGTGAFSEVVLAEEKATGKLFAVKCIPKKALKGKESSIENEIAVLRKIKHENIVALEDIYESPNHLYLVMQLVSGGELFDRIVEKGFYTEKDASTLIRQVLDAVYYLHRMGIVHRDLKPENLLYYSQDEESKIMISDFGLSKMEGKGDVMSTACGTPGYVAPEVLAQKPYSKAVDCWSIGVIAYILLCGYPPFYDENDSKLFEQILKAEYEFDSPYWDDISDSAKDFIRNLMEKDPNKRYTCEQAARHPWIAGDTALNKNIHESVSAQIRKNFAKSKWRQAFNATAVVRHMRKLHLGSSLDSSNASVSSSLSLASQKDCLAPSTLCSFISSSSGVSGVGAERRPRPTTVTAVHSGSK
Sequence of AURKC (human) (Q9UQB9 whole entry, looked up): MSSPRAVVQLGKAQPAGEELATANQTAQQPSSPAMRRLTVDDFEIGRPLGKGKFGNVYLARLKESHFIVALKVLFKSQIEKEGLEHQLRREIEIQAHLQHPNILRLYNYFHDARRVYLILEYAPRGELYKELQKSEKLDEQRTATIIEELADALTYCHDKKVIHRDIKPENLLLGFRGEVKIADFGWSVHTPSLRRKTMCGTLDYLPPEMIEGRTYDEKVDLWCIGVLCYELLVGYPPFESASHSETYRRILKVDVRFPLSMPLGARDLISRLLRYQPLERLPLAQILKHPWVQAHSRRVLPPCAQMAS

For Oc1ccc(-c2nc(-c3ccc(F)cc3)c(-c3ccncc3)[nH]2)cc1, the residual activity (AURKA (human)) was 96.1%, the residual activity (AURKC (human)) was 94.2% and the residual activity (CAMK1D (human)) was 102%. It also gave a residual activity (CDK5 CDK5R1 p35 (human)) of 97.3%, a residual activity (CDK9 CCNK (human)) of 101% and a residual activity (CDK9 CCNT1 (human)) of 83.4%. For the same compound, the residual activity (CLK1 (human)) was 107%, the residual activity (CSNK1E (human)) was 32.7% and the residual activity (FGFR4 (human)) was 92.9%. For the same compound, the residual activity (FGR (human)) was 93%, the residual activity (FLT1 (human)) was 90.6% and the residual activity (GRK7 (human)) was 105%. It also gave a residual activity (HIPK1 (human)) of 98.2%, a residual activity (HIPK3 (human)) of 98.3% and a residual activity (HIPK4 (human)) of 89.7%. The residual activity (IRAK4 (human)) was 124%, the residual activity (MAP3K11 (human)) was 25.2% and the residual activity (MAP3K2 (human)) was 95%. For the same compound, the residual activity (MAP3K3 (human)) was 103%, the residual activity (MAP3K8 (human)) was 96.6% and the residual activity (MAP4K5 (human)) was 96.6%. It also gave a residual activity (MAPKAPK2 (human)) of 99.2%, a residual activity (NEK1 (human)) of 98.9% and a residual activity (NTRK1 (human)) of 105%. It also gave a residual activity (NTRK3 (human)) of 101%, a residual activity (PAK2 (human)) of 94.1% and a residual activity (PLK3 (human)) of 96.2%. The residual activity (PNCK (human)) was 99.7%, the residual activity (PRKCH (human)) was 95% and the residual activity (RAF1 (human)) was 25.8%. The residual activity (RPS6KB1 (human)) was 87.8%, the residual activity (SGK2 (human)) was 99.6% and the residual activity (SGK3 (human)) was 98.4%. The residual activity (SLK (human)) was 91.2%, the residual activity (STK10 (human)) was 85% and the residual activity (STK4 (human)) was 105%. The residual activity (SYK (human)) was 101%, the residual activity (TAOK3 (human)) was 103% and the residual activity (TEK (human)) was 99.6%. For the same compound, the residual activity (TNK2 (human)) was 83.2%, the residual activity (VRK1 (human)) was 98.7% and the residual activity (WEE1 (human)) was 94.9%.
Nc1nc(Nc2ccc(S(N)(=O)=O)cc2)nn1C(=S)Nc1c(F)cccc1F was tested, and the residual activity (AURKA (human)) was 1.44%, the residual activity (AURKC (human)) was 16.2% and the residual activity (CAMK1D (human)) was 93.4%. It also gave a residual activity (CDK5 CDK5R1 p35 (human)) of 11.3%, a residual activity (CDK9 CCNK (human)) of 7.46% and a residual activity (CDK9 CCNT1 (human)) of 15.6%. It also gave a residual activity (CLK1 (human)) of 2.26%, a residual activity (CSNK1E (human)) of 91.8% and a residual activity (FGFR4 (human)) of 32.2%. The residual activity (FGR (human)) was 17.1%, the residual activity (FLT1 (human)) was 11.4% and the residual activity (GRK7 (human)) was 96.6%. It also gave a residual activity (HIPK1 (human)) of 105%, a residual activity (HIPK3 (human)) of 78.2% and a residual activity (HIPK4 (human)) of 50.6%. For the same compound, the residual activity (IRAK4 (human)) was 19.6%, the residual activity (MAP3K11 (human)) was 1.33% and the residual activity (MAP3K2 (human)) was -0.498%. For the same compound, the residual activity (MAP3K3 (human)) was 5.41%, the residual activity (MAP3K8 (human)) was 127% and the residual activity (MAP4K5 (human)) was 1.71%. The residual activity (MAPKAPK2 (human)) was 91.1%, the residual activity (NEK1 (human)) was 6.11% and the residual activity (NTRK1 (human)) was 31.7%. For the same compound, the residual activity (NTRK3 (human)) was 3.59%, the residual activity (PAK2 (human)) was 26.4% and the residual activity (PLK3 (human)) was 92.2%. It also gave a residual activity (PNCK (human)) of 89.1%, a residual activity (PRKCH (human)) of 45.7% and a residual activity (RAF1 (human)) of 110%. The residual activity (RPS6KB1 (human)) was 30%, the residual activity (SGK2 (human)) was 42% and the residual activity (SGK3 (human)) was 98.4%. It also gave a residual activity (SLK (human)) of 4.58%, a residual activity (STK10 (human)) of 3.96% and a residual activity (STK4 (human)) of 2.16%. For the same compound, the residual activity (SYK (human)) was 15.5%, the residual activity (TAOK3 (human)) was 10% and the residual activity (TEK (human)) was 5.06%. For the same compound, the residual activity (TNK2 (human)) was 6.41%, the residual activity (VRK1 (human)) was 94.6% and the residual activity (WEE1 (human)) was 100%.
O=c1cc(-c2cccc3c2Sc2ccccc2S3)oc(N2CCOCC2)c1 showed a residual activity (AURKA (human)) of 91.7%, a residual activity (AURKC (human)) of 84.9% and a residual activity (CAMK1D (human)) of 106%. It also gave a residual activity (CDK5 CDK5R1 p35 (human)) of 99.5%, a residual activity (CDK9 CCNK (human)) of 109% and a residual activity (CDK9 CCNT1 (human)) of 100%. The residual activity (CLK1 (human)) was 103%, the residual activity (CSNK1E (human)) was 104% and the residual activity (FGFR4 (human)) was 100%. For the same compound, the residual activity (FGR (human)) was 84.9%, the residual activity (FLT1 (human)) was 90.8% and the residual activity (GRK7 (human)) was 99.2%. It also gave a residual activity (HIPK1 (human)) of 99.6%, a residual activity (HIPK3 (human)) of 105% and a residual activity (HIPK4 (human)) of 100%. The residual activity (IRAK4 (human)) was 160%, the residual activity (MAP3K11 (human)) was 98.6% and the residual activity (MAP3K2 (human)) was 92.7%. For the same compound, the residual activity (MAP3K3 (human)) was 137%, the residual activity (MAP3K8 (human)) was 103% and the residual activity (MAP4K5 (human)) was 93.6%. The residual activity (MAPKAPK2 (human)) was 94.2%, the residual activity (NEK1 (human)) was 100% and the residual activity (NTRK1 (human)) was 99.4%. For the same compound, the residual activity (NTRK3 (human)) was 99.7%, the residual activity (PAK2 (human)) was 100% and the residual activity (PLK3 (human)) was 98.1%. The residual activity (PNCK (human)) was 109%, the residual activity (PRKCH (human)) was 99.7% and the residual activity (RAF1 (human)) was 94.7%. It also gave a residual activity (RPS6KB1 (human)) of 91.5%, a residual activity (SGK2 (human)) of 115% and a residual activity (SGK3 (human)) of 98.6%. The residual activity (SLK (human)) was 93.5%, the residual activity (STK10 (human)) was 97.1% and the residual activity (STK4 (human)) was 95%. The residual activity (SYK (human)) was 106%, the residual activity (TAOK3 (human)) was 115% and the residual activity (TEK (human)) was 100%. It also gave a residual activity (TNK2 (human)) of 95.7%, a residual activity (VRK1 (human)) of 90.7% and a residual activity (WEE1 (human)) of 98.3%.
